Tested on: breast ducts of live rabbits
Assay: Mannitol solution introduced into breast ducts of live rabbit: ductal fluid collection
Format: in vivo, New Zealand rabbit
Details: for recovery (out-flow liquid collected from duct): about an hour after injection
Protocol: The objective of these experiments was to test the effects of the introduction of a solution containing mannitol on the secretion of fluid from the breast ducts of live rabbits. New Zealand rabbit #3242, female, from Kraelik Farm in California weighing 4.1 kg was used. The rabbit was anesthetized by injection of 200 mg of ketamine and 40 mg of Zylazine. A second injection of 100 mg of ketamine and 20 mg of xylazine was made 2 hours later to maintain the rabbit in a deep plane of anesthesia. The thorax and abdomen of the rabbit was shaved to expose the breasts and nipples.
A single lumen blue color catheter (O.D. 0.23″ ID 0.017; O.D. at the tip 0.011″-0.012″) was inserted into a duct in each nipple. Three nipples were tested, and 2 ducts per nipple were accessed with a catheter. The nipples were identified A, B, and C.
A duct on nipple A was injected with 0.20 ml of a 12.5% solution of D-Mannitol in H2O (available from Sigma Chemicals, St. Louis, Mo. cat# M-9546 lot 6710402: C6H14O6 FW 182.2) with a single catheter. The control duct on nipple A was injected with 0.20 ml of phosphate buffered saline (PBS). A microfuge tube was attached to the end of each catheter to collect out flow liquid. Ten minutes later 0.2 ml of a 12.5% solution of D-Mannitol in H2O was injected into the first duct and the second duct was injected with 0.20 ml of phosphate buffered saline, for a total volume injected in each duct of 0.40 ml.
A duct on nipple B was injected with 0.5 ml of a 12.5% solution of D-Mannitol in H2O with a single catheter. The control duct on nipple B was injected with […] of phosphate buffered saline (PBS). A microfuge tube was attached to the end of each catheter to collect out-flow liquid.
A duct on nipple C was injected with 0.7 ml of a 12.5% solution of D-Mannitol in H2O with a single catheter. The control duct on nipple C was injected with 0.70 ml of phosphate buffered saline (PBS). A microfuge tube was attached to the end of each catheter to collect out flow liquid.
About an hour after the fluid containing mannitol or PBS was injected into the ducts via the catheters, the microfuge tubes were checked for whether any fluid was returned.
Davidson green dye (1 ul) was added to each microfuge tube containing fluid for the purpose of taking a picture. The rabbit was euthanized by IV injection of supersaturated KC1. PBS (1.5 ul) was added to each collection. The cells were spun onto Shandon coated slide using megafunnel and cytospin-3 machine (Shandon, Inc. located in Pittsburgh, Pa.) at a speed of 1500/per minute for 15 minutes. The cells were fixed on the slide in 95% ethanol for 10 minutes. The cells were stained using Hematoxylin and Eosin (HE) method of cytology of collected fluid.

Compound: OC[C@@H](O)[C@@H](O)[C@H](O)[C@H](O)CO [mannitol, D-Mannitol]
- ducts from which fluid can be collected (ducts injected with mannitol solution (PBS control: 1 out of 3)): three out of three
- recovery (out-flow liquid collected from duct) (nipple A, duct A1, 0.4 ml mannitol 12.5% in H2O injected intraductally (2 x 0.2 ml)): 310 ul liquid
- recovery (out-flow liquid collected from duct) (nipple B, duct B1, 0.5 ml mannitol 12.5% in H2O injected intraductally): 490 ul liquid
- recovery (out-flow liquid collected from duct) (nipple C, duct C1, 0.7 ml mannitol 12.5% in H2O injected intraductally): 280 ul liquid
